The values below are quoted from earlier work in patent US20160083345A1, “POLYMORPHIC FORMS OF LOMITAPIDE AND ITS SALTS AND PROCESSES FOR THEIR PREPARATION” (CADILA HEALTHCARE LIMITED, priority 2014, published 2016).

Counter-ions that a name gives are not always drawn. Like-named read-outs stand apart in the source and are kept apart here.

`O=C(NC1CCN(CCCCC2(C(=O)NCC(F)(F)F)c3ccccc3-c3ccccc32)CC1)c1ccccc1-c1ccc(C(F)(F)F)cc1` [Lomitapide mesylate, N-(2,2,2-trifluoroethyl)-9-[4-[4-[[[4′(trifluoromethyl)[1,1′-biphenyl]-2-yl]carbonyl]amino]-1-piperidinyl]butyl]-9H-fluorene-9carboxamide methanesulfonate]: the solubility result runs as follows: (1-octanol) “sparingly soluble”; (2-butanol) “soluble”; (2-propanol) “sparingly soluble”; (acetone) “freely soluble”; (acetonitrile) “soluble”; (aqueous solutions of pH 2 to 5) “slightly soluble”. Further, the solubility entry runs as follows: (ethanol) “freely soluble”; (ethyl acetate) “slightly soluble”; (heptane) “insoluble”; (methanol) “freely soluble”; (methylene chloride) “soluble”.
